Measured values taken from PubChem BioAssay (NCI).
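Grown in 96-well plates, cells were treated for 48 hours with each compound at five concentrations. Insufficient inhibition: endpoint recorded as highest concentration tested. GI50 is the concentration that inhibits growth by half. TGI marks complete inhibition of growth.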

How the values were obtained:
Assay in all cases: growth of human tumour cells (NCI), 48 h
A549 NSCLC = tested on: A549 NSCLC
HCT-116 colon = tested on: HCT-116 colon
HOP-62 NSCLC = tested on: HOP-62 NSCLC
K-562 leukemia = tested on: K-562 leukemia
NCI-H460 lung = tested on: NCI-H460 lung
OVCAR-4 ovarian = tested on: OVCAR-4 ovarian
SF-295 CNS = tested on: SF-295 CNS
SF-539 CNS = tested on: SF-539 CNS
SNB-75 CNS = tested on: SNB-75 CNS
TK-10 renal = tested on: TK-10 renal

Structure (SMILES) | TGI (A549 NSCLC) | TGI (HCT-116 colon) | TGI (HOP-62 NSCLC) | TGI (K-562 leukemia) | TGI (NCI-H460 lung) | TGI (OVCAR-4 ovarian) | TGI (SF-295 CNS) | TGI (SF-539 CNS) | TGI (SNB-75 CNS) | TGI (TK-10 renal) | GI50 (A549 NSCLC) | GI50 (HCT-116 colon) | GI50 (HOP-62 NSCLC) | GI50 (K-562 leukemia) | GI50 (NCI-H460 lung) | GI50 (OVCAR-4 ovarian) | GI50 (SF-295 CNS) | GI50 (SF-539 CNS) | GI50 (SNB-75 CNS) | GI50 (TK-10 renal)
COc1cc2c3cc1Oc1c(OC)c(OC)cc4c1C(=NCC4)Cc1ccc(cc1)Oc1cc(ccc1O)C[C@H]3N(C)CC2 | > 100 µM | 26.8 µM | 44.7 µM | 74.1 µM | 39.9 µM | 40.7 µM | 43.3 µM | 27.9 µM | 40.2 µM | 43.1 µM | – | – | – | – | – | – | – | – | – | –
NC(N)=NCC1CCCCCCN1 (stereo not given) | > 100 µM | > 100 µM | > 100 µM | > 100 µM | > 100 µM | > 100 µM | > 100 µM | > 100 µM | > 100 µM | > 100 µM | – | – | – | – | – | – | – | – | – | –
CC1=C2CC(C)(C)/C=C\C(=O)/C(C)=C\C3=C[C@H](C)C[C@]3(O2)C1=O | 15.5 µM | 1.09 µM | 15.9 µM | 14.4 µM | 14 µM | 5.28 µM | 22 µM | 3.09 µM | 12.2 µM | 5 µM | – | – | – | – | – | – | – | – | – | –
CC(C)N1CCN(c2ccncc2S(=O)(=O)N2CCCCC2)CC1 | > 100 µM | > 100 µM | > 100 µM | > 100 µM | > 100 µM | > 100 µM | > 100 µM | > 100 µM | > 100 µM | > 100 µM | – | – | – | – | – | – | – | – | – | –
O=C1/C=C/[C@@H](O)[C@@H]2C[C@@H](O)C[C@H]2/C=C/CCC[C@H](CCc2cccc3ccccc23)O1 | 13.2 µM | 0.283 µM | 11.8 µM | 14.4 µM | 12.2 µM | 3.82 µM | 10.1 µM | 16.3 µM | 14.5 µM | 0.328 µM | 0.0411 µM | 120 nM | 0.0713 µM | 368 nM | 0.274 µM | 0.0525 µM | 38.8 nM | 121 nM | 35.8 nM | 0.0861 µM
C[C@@]1(C(=O)O)CCC[C@]2(C)C1CC[C@@]13C[C@@](O)(CC[C@]12O)[C@@]1(CO1)C3 (stereo not given in full) | > 100 µM | > 100 µM | > 100 µM | > 100 µM | > 100 µM | > 100 µM | > 100 µM | > 100 µM | > 100 µM | > 100 µM | > 100 µM | > 100000 nM | > 100 µM | > 100000 nM | > 100 µM | > 100 µM | > 100000 nM | > 100000 nM | > 100000 nM | > 100 µM
O=C(CCl)NCCNc1nccc(Nc2ccc(S(=O)(=O)Nc3ccccn3)cc2)n1 | 13 µM | 5.53 µM | 5.46 µM | 17 µM | 7.22 µM | 25.3 µM | 7.66 µM | 3.9 µM | 13.3 µM | 10.3 µM | 3.4 µM | 1540 nM | 2.17 µM | 2570 nM | 2.39 µM | 3.1 µM | 2390 nM | 1850 nM | 2840 nM | 3.04 µM
C=C1C(=O)O[C@H]2[C@H]1CC/C(COC(=O)NCc1c[nH]c3ccccc13)=C\CC[C@@]1(C)O[C@@H]21 | 28.6 µM | 3.3 µM | 23.7 µM | 12.6 µM | 23.1 µM | 18.6 µM | 24.7 µM | 10.4 µM | 21.7 µM | 5.65 µM | 12.5 µM | 1530 nM | 11.2 µM | 1820 nM | 8.14 µM | 4.5 µM | 12100 nM | 2820 nM | 9860 nM | 2.55 µM
CN1CN(C2OC(CO)C(O)C2O)c2nc(N)[nH]c(=O)c21 (stereo not given) | > 100 µM | > 100 µM | > 100 µM | > 100 µM | > 100 µM | > 100 µM | > 100 µM | > 100 µM | > 100 µM | > 100 µM | – | – | – | – | – | – | – | – | – | –
O=C(Nc1ccc(Cc2ccccc2)cc1)Nc1nn(C(=O)Nc2ccc(Cc3ccccc3)cc2)c2ccccc12 | > 100 µM | > 100 µM | > 100 µM | > 100 µM | > 100 µM | > 100 µM | > 100 µM | > 100 µM | > 100 µM | > 100 µM | > 100 µM | > 100000 nM | 59.7 µM | 40500 nM | > 100 µM | > 100 µM | > 100000 nM | > 100000 nM | 33800 nM | > 100 µM
Oc1ccc(Nc2ccc3ccccc3c2)cc1 | 27 µM | 24 µM | 41.5 µM | 15.9 µM | 15.8 µM | > 100 µM | 6.29 µM | 18.6 µM | 35.9 µM | 42.3 µM | 4.84 µM | 9230 nM | 10.4 µM | 2960 nM | 4.27 µM | 8.64 µM | 2130 nM | 3380 nM | 2780 nM | 4.22 µM
